Results on 15 compounds are retold here after patent US12187709B2 (Genentech, Inc., priority 2021, dated 2025).

The target in experiment [1] is Cbl-b (Homo sapiens (Human), UniProt Q13191). Description: Cbl-b LCK Ub TR-FRET assay (Cbl-b Lck HTRF). Type of experiment: biochemical. The conditions noted are these: for IC50: Cbl-b LCK Ub TR-FRET; for fold-selectivity (Cbl-b over C-cbl): ratio C-cbl Lck HTRF IC50 / Cbl-b Lck HTRF IC50. In outline:
(§1)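 Signal is read once the detection mix has stood 20 min at ambient temperature. Curves are anchored by DMSO as maximum and by omission of LCK as minimum.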

For experiment [2], the target named is c-Cbl (Homo sapiens (Human), UniProt P22681). Description: C-Cbl LCK Ub TR-FRET assay (C-cbl Lck HTRF). Type of experiment: biochemical. In outline:
as §1

Experiment [3] has as its target Human Cbl-b (residues 40-426) (Homo sapiens (Human), UniProt Q13191). Briefly: Cbl-b SPR assay. Type of experiment: binding. The conditions noted are these: for Fold of selectivity: C-cbl SPR Kd vs Cbl-b SPR Kd; for Kd: SPR, 20° C. In outline: (§2)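 Binding is measured by surface plasmon resonance against both isoforms, with double referencing and 1:1 kinetic fitting. Dissociation time is tuned to 4-5 half-lives.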

For experiment [4], the target named is c-Cbl (residues 47-435) (Homo sapiens (Human), UniProt P22681). Briefly: c-Cbl SPR assay. As to conditions: 20° C. Type of experiment: binding. In outline: as §2
c-Cbl (residues 47-435), sequence (P22681 47-435): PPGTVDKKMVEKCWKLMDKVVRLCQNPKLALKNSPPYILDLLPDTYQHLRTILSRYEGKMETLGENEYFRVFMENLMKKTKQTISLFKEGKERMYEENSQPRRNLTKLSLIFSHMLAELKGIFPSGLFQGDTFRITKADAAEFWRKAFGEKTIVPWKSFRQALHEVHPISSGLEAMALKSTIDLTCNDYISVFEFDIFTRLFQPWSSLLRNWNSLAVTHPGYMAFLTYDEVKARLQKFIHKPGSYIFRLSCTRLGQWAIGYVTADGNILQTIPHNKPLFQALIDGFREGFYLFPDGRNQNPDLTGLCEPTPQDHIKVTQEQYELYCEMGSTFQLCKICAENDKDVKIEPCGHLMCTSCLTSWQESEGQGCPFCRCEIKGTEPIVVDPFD

Human Cbl-b (residues 40-426), sequence (Q13191 40-426): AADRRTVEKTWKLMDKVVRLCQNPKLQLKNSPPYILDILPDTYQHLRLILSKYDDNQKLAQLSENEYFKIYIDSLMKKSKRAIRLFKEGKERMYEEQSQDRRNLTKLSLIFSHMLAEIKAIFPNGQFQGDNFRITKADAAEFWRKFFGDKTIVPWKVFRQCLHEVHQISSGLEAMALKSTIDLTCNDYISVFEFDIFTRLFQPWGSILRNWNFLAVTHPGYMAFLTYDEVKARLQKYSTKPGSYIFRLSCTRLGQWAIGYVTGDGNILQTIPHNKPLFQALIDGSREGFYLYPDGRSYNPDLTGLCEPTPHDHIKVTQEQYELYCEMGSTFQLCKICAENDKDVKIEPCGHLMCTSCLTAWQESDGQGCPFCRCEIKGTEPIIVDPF
Cbl-b, sequence (Q13191 40-426): as above
c-Cbl, sequence (P22681 47-435): as the sequence (P22681 47-435) above

With `Cn1cnnc1[C@H](C[C@H]1COCCO1)c1cccc(N2Cc3c(cc(CNC4(C)CCC4)cc3C(F)(F)F)C2=O)c1` [Compound 294, 2-(3-((R)-2-((S)-1,4-dioxan-2-yl)-1-(4-methyl-4H-1,2,4-triazol-3-yl)ethyl)phenyl)-6-(((1-methylcyclobutyl)amino)methyl)-4-(trifluoromethyl)isoindolin-1-one], the concentration for half-maximal inhibition (IC50) in experiment [1] stood at 400 nM; in experiment [2], 660 nM. In addition, the “fold-selectivity (Cbl-b over C-cbl)” value in experiment [1] amounted to 1.6x. Besides, the Fold of selectivity in experiment [3] came out at 1.3×. Besides, the Kd in experiment [3] stood at 530 nM; in experiment [4], 720 nM.
Regarding `Cn1cnnc1[C@H](C[C@@H]1COCCO1)c1cccc(N2Cc3c(cc(CNC4(C)CCC4)cc3C(F)(F)F)C2=O)c1` [Compound 297, 2-(3-((R)-2-((R)-1,4-dioxan-2-yl)-1-(4-methyl-4H-1,2,4-triazol-3-yl)ethyl)phenyl)-6-(((1-methylcyclobutyl)amino)methyl)-4-(trifluoromethyl)isoindolin-1-one], in experiment [1], the IC50 is 1300 nM and the “fold-selectivity (Cbl-b over C-cbl)” value stood at 1.8x. In addition, the IC50 in experiment [2] was found to be 2300 nM. For the same compound, in experiment [3], the Fold of selectivity came out at 2.0× and the Kd is 2800 nM. In experiment [4], the affinity, expressed as Kd, was 5800 nM.
On to `Cn1cnnc1C1(c2cccc(N3Cc4c(cc(CNC5(C)CCC5)cc4C(F)(F)F)C3=O)c2)CCCCC1` [Compound 298, 2-(3-(1-(4-methyl-4H-1,2,4-triazol-3-yl)cyclohexyl)phenyl)-6-(((1-methylcyclobutyl)amino)methyl)-4-(trifluoromethyl)isoindolin-1-one], for which the IC50 in experiment [1] is 660 nM; in experiment [2] it was 1500 nM. Moreover, in experiment [1], the “fold-selectivity (Cbl-b over C-cbl)” value amounted to 2.3x. In experiment [3], this compound gave a Fold of selectivity of 5.9×. Further, the results for the Kd in experiment [3] and in experiment [4] were 480 nM and 2600 nM, respectively.
For the compound `Cn1cnnc1[C@@](C)(O)c1cccc(N2Cc3c(cc(CNC4(C)CCC4)cc3C(F)(F)F)C2=O)c1` [Compound 306, (S)-2-(3-(1-hydroxy-1-(4-methyl-4H-1,2,4-triazol-3-yl)ethyl)phenyl)-6-(((1-methylcyclobutyl)amino)methyl)-4-(trifluoromethyl)isoindolin-1-one], in experiment [1], it took 140 nM to reach half-maximal inhibition (IC50) and the “fold-selectivity (Cbl-b over C-cbl)” value is listed as 1.6x. In experiment [2], this compound came in with a half-maximal inhibitory concentration (IC50) of 230 nM. Also, in experiment [3], the Fold of selectivity worked out at 2.0× and binding was put at a Kd of 140 nM. Binding in experiment [4] was put at a Kd of 280 nM.
On to `CC(C)[C@](O)(c1cccc(N2Cc3c(cc(CNC4(C)CCC4)cc3C(F)(F)F)C2=O)c1)c1nncn1C` [Compound 310, (S)-2-(3-(1-hydroxy-2-methyl-1-(4-methyl-4H-1,2,4-triazol-3-yl)propyl)phenyl)-6-(((1-methylcyclobutyl)amino)methyl)-4-(trifluoromethyl)isoindolin-1-one], for which, in experiment [1], 24 nM corresponded to half-maximal inhibition (IC50) and the “fold-selectivity (Cbl-b over C-cbl)” value came out at 4.7x. The concentration for half-maximal inhibition (IC50) in experiment [2] was found to be 110 nM. In experiment [3], this compound came in with a Fold of selectivity of 3.7× and a Kd of 30 nM. The same compound came in with a dissociation constant Kd in experiment [4] of 110 nM.
On to `CC[C@H](NC1(C)CCC1)c1cc2c(c(C(F)(F)F)c1)CN(c1cccc([C@H](c3nncn3C)C3COC3)c1)C2=O` [Compound 313, 2-(3-((R)-(4-methyl-4H-1,2,4-triazol-3-yl)(oxetan-3-yl)methyl)phenyl)-6-((S)-1-((1-methylcyclobutyl)amino)propyl)-4-(trifluoromethyl)isoindolin-1-one], for which, in experiment [1], the IC50 was 6.4 nM and the “fold-selectivity (Cbl-b over C-cbl)” value is listed as 0.68x. Moreover, the IC50 in experiment [2] is 4.4 nM. Also, in experiment [3], the Fold of selectivity turned out to be 4.0× and the Kd worked out at 0.2 nM. Further, the Kd in experiment [4] worked out at 0.8 nM.
Regarding `CC[C@@H](NC1(C)CCC1)c1cc2c(c(C(F)(F)F)c1)CN(c1cccc([C@H](c3nncn3C)C3COC3)c1)C2=O` [Compound 314, 2-(3-((R)-(4-methyl-4H-1,2,4-triazol-3-yl)(oxetan-3-yl)methyl)phenyl)-6-((R)-1-((1-methylcyclobutyl)amino)propyl)-4-(trifluoromethyl)isoindolin-1-one], in experiment [1], half-maximal inhibition (IC50) was put at 11 nM and the “fold-selectivity (Cbl-b over C-cbl)” value came to 4.5x. Besides, half-maximal inhibition in experiment [2] (IC50) required 51 nM. In experiment [3], this compound showed a Fold of selectivity of 5.5× and a Kd of 5.1 nM. Also, the Kd in experiment [4] was 28 nM.
For the compound `Cn1cnnc1[C@@H](c1cccc(N2Cc3c(Cl)cc(CNC4(C)CCC4)cc3C2=O)c1)[C@H]1C[C@@H](F)C1` [Compound 317, 4-chloro-2-(3-((R)-((1s,3S)-3-fluorocylcobutyl)(4-methyl-4H-1,2,4-triazol-3-yl)methyl)phenyl)-6-(((1-methylcyclobutyl)amino)methyl)isoindolin-1-one], in experiment [1], the concentration for half-maximal inhibition (IC50) is 170 nM and the “fold-selectivity (Cbl-b over C-cbl)” value was 6.5x. The same compound came in with a 50% inhibitory concentration (IC50) in experiment [2] of 1100 nM. In experiment [3], this compound returned a Fold of selectivity of 15× and a dissociation constant (Kd) of 100 nM. In experiment [4], this compound showed a dissociation constant (Kd) of 1500 nM.
`CS[C@H]1C[C@](c2cccc(N3Cc4c(cc(CNC5(C)CCC5)cc4C(F)(F)F)C3=O)c2)(c2nncn2C)C1` [Compound 323, 2-(3-((1r,3r)-1-(4-methyl-4H-1,2,4-triazol-3-yl)-3-(methylthio)cyclobutyl)phenyl)-6-(((1-methylcyclobutyl)amino)methyl)-4-(trifluoromethyl)isoindolin-1-one]: in experiment [1], half-maximal inhibition (IC50) was put at 5 nM and the “fold-selectivity (Cbl-b over C-cbl)” value was 1.4x. In experiment [2], this compound displayed a 50% inhibitory concentration (IC50) of 7.1 nM. In addition, in experiment [3], the Fold of selectivity is 12× and the Kd was found to be 0.47 nM. The compound also came in with a Kd in experiment [4] of 5.2 nM.
Turning to `CS[C@H]1C[C@@](c2cccc(N3Cc4c(cc(CNC5(C)CCC5)cc4C(F)(F)F)C3=O)c2)(c2nncn2C)C1` [Compound 324, 2-(3-((1s,3s)-1-(4-methyl-4H-1,2,4-triazol-3-yl)-3-(methylthio)cyclobutyl)phenyl)-6-(((1-methylcyclobutyl)amino)methyl)-4-(trifluoromethyl)isoindolin-1-one], in experiment [1], the 50% inhibitory concentration (IC50) was determined as 4.8 nM and the “fold-selectivity (Cbl-b over C-cbl)” value is recorded as 1.5x. In experiment [2], this compound came in with a half-inhibitory concentration (IC50) of 7.1 nM. In addition, in experiment [3], the Fold of selectivity was found to be 10× and the Kd amounted to 0.57 nM. Besides, the dissociation constant (Kd) in experiment [4] turned out to be 5.7 nM.
For the compound `Cn1cnnc1C1(c2cccc(N3Cc4c(cc(C(N)=O)cc4C(F)(F)F)C3=O)c2)CCC1` [Compound 327, 2-(3-(1-(4-methyl-4H-1,2,4-triazol-3-yl)cyclobutyl)phenyl)-3-oxo-7-(trifluoromethyl)isoindoline-5-carboxamide], in experiment [1], inhibition was half-maximal at 190 nM (IC50) and the “fold-selectivity (Cbl-b over C-cbl)” value amounted to 2.9x. In experiment [2], this compound had a half-inhibitory concentration (IC50) of 550 nM. In experiment [3], the Fold of selectivity came out at 4.7× and binding was characterised by a dissociation constant (Kd) of 210 nM. For the same compound, the dissociation constant (Kd) in experiment [4] turned out to be 980 nM.
Consider `Cn1cnnc1C1(c2cccc(N3Cc4c(cc(CNC5(C)CCC5)cc4C(F)(F)F)C3=O)c2)CS(=O)(=O)C1` [Compound 328, 2-(3-(3-(4-methyl-4H-1,2,4-triazol-3-yl)-1,1-dioxidothietan-3-yl)phenyl)-6-(((1-methylcyclobutyl)amino)methyl)-4-(trifluoromethyl)isoindolin-1-one], for which the IC50 in experiment [1] turned out to be 100 nM; in experiment [2] it was 380 nM. The “fold-selectivity (Cbl-b over C-cbl)” value in experiment [1] worked out at 3.8x. In experiment [3], this compound came in with a Fold of selectivity of 4.8×. Also, the Kd was 67 nM in experiment [3] and 320 nM in experiment [4].
In the case of `Cn1cnnc1C1(c2cccc(N3Cc4c(cc(CNC5(C)CCC5)cc4C(F)(F)F)C3=O)c2)CSC1.O=CO` [Compound 329, 2-(3-(3-(4-methyl-4H-1,2,4-triazol-3-yl)thietan-3-yl)phenyl)-6-(((1-methylcyclobutyl)amino)methyl)-4-(trifluoromethyl)isoindolin-1-one formate], in experiment [1], the IC50 was 11 nM and the “fold-selectivity (Cbl-b over C-cbl)” value is listed as 1.8x. For the same compound, the half-inhibitory concentration (IC50) in experiment [2] was 19 nM. In experiment [3], the Fold of selectivity is given as 5.7× and the Kd is 3.2 nM. The compound also yielded an equilibrium dissociation constant (Kd) in experiment [4] of 19 nM.
Take `Cn1cnnc1[C@]1(c2cccc(N3Cc4c(cc(CNC5(C)CCC5)cc4C(F)(F)F)C3=O)c2)C[S@+]([O-])C1` [Compound 330, 2-(3-((1s,3s)-3-(4-methyl-4H-1,2,4-triazol-3-yl)-1-oxidothietan-3-yl)phenyl)-6-(((1-methylcyclobutyl)amino)methyl)-4-(trifluoromethyl)isoindolin-1-one]: in experiment [1], the half-inhibitory concentration (IC50) was determined as 200 nM and the “fold-selectivity (Cbl-b over C-cbl)” value turned out to be 1.9x. The compound further had an IC50 in experiment [2] of 390 nM. Also, in experiment [3], the Fold of selectivity is given as 11× and the Kd turned out to be 110 nM. Moreover, binding in experiment [4] was characterised by a dissociation constant (Kd) of 1200 nM.
As to `Cn1cnnc1C1(c2cccc(N3Cc4c(cc(CNC5(C)CCC5)cc4C(F)(F)F)C3=O)c2)C[S+]([O-])C1` (stereo not drawn) [Compound 331, 2-(3-((1r,3r)-3-(4-methyl-4H-1,2,4-triazol-3-yl)-1-oxidothietan-3-yl)phenyl)-6-(((1-methylcyclobutyl)amino)methyl)-4-(trifluoromethyl)isoindolin-1-one], the 50% inhibitory concentration (IC50) is 29 nM in experiment [1] and 110 nM in experiment [2]. Also, in experiment [1], the “fold-selectivity (Cbl-b over C-cbl)” value stood at 3.8x. Moreover, the Fold of selectivity in experiment [3] is 8×. In addition, the Kd in experiment [3] was 15 nM; in experiment [4], 120 nM.
